# Test results published in US5284834A, “Adenosine functionalized congeners as cardiovascular treating agents for animals and methods for using same” (priority 1992, dated 1994).
# “Also recorded” adds a separate entry of the source.
# Legend:
# [1] = target: T1, Brain A1-adenosine receptor (Rattus norvegicus, UniProt P25099); test: A1-binding assay: antagonism of binding of 1nM [3H]N6-cyclohexyladenosine to rat cerebral cortical membranes; conditions: molar potency ratio derived from Ki values; rat cerebral cortical membranes
# T1 construct: -cyclohexyladenosine to rat cerebral cortical membranes; from tissue; host or cells: rat cerebral cortical membranes
# T1 sequence (P25099 1-326): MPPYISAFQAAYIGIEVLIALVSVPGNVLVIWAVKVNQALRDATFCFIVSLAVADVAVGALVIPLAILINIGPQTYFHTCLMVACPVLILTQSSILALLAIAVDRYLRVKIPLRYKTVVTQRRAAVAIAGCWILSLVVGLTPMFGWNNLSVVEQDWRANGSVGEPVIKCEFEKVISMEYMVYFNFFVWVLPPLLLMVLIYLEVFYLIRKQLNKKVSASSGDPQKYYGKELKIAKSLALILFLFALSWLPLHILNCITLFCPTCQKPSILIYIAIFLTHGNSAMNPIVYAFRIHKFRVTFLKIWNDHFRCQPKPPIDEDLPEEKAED
# Source text: (§1) In the present invention there is compared the A1 - and A2 -potencies of a series of long-chain derivatives of adenosine suitable for attachment to "carriers," such as peptides or proteins, and for immobilization to polymeric matrices for affinity chromatography of adenosine receptors. The method employed is a comparison of increasing coronary blood flow via activation of an A2 -adenosine receptor versus an A1 -binding assay in rat brain.
# ^b Molar potency ratio relative to adenosine, derived from Ki
# values for antagonism of binding of 1nM [^3 H]N^6
# -cyclohexyladenosine to rat cerebral cortical membranes.
# (§2) The potencies at A2 -receptors (Table 1) are expressed as a molar potency ratio of the EC50 value of adenosine divided by that of the adenosine analogue. A common reference compound on which to base molar potency ratios was needed to facilitate comparison of activities at A1 and A2 receptors. Adenosine itself cannot be used as a reference in the A1 binding assay since treatment of the membranes with adenosine deaminase is essential. […] Thus, MeAdo was used as a suitable reference compound.
# [2] = target: T2, A2-adenosine receptor (adenylate cyclase, human platelet membranes) (Homo sapiens, UniProt P29274); test: Stimulation of adenylate cyclase in human platelet membranes; assay type: biochemical; conditions: human platelet membranes; read-out: IC50 (printed lC50), stimulation of adenylate cyclase
# T2 construct: stimulation of adenylate cyclase in human platelet membranes; from tissue; host or cells: human platelet membranes
# Water solubility = assay type: physicochemical
# [3] = target: T3, Coronary A2-Adenosine Receptor (Canis lupus familiaris, UniProt P11617); test: Coronary vasoactivity in the anesthetized, open-chest dog (intracoronary infusion; MPR from EC50); assay type: in vivo
# T3 construct: The assay of coronary vasoactivity in the anesthetized, open-chest dog; from tissue; host or cells: coronary vessels in situ, anesthetized open-chest dog
# Source text: as §1, §2
# The assay of coronary vasoactivity in the anesthetized, open-chest dog, is described by Kusachi et al, J. Med. Chem., in press, and Olsson, et al, J. Circ. […] The assay estimates an EC-50, the concentration of analogue which produces a half maximum change in coronary conductance (reciprocal resistance). To reduce between-animal variability activity is expressed as a molar potency ratio (MPR) the value of the EC-50 of adenosine divided by that of the analogue. Owing to the low water solubility of some of the analogues, solutions for intracoronary infusion were prepared by diluting stock solutions in dimethyl sulfoxide. In such instances, solutions of adenosine used to establish a standard of potency also contained dimethyl sulfoxide. […]
# T3 sequence (P11617 whole entry, the tested form may be a part): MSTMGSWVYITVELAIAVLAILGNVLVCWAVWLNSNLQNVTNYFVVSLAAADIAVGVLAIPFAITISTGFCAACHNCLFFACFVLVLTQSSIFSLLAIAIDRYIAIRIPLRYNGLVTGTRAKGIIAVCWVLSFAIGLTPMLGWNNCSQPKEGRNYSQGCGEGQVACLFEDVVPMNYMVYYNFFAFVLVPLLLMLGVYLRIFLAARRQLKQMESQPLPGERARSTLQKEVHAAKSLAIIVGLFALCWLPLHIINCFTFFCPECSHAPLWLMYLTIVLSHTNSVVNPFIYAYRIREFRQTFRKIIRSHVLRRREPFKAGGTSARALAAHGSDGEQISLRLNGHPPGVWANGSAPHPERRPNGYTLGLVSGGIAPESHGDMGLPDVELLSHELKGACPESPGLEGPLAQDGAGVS
# T2 sequence (P29274 whole entry): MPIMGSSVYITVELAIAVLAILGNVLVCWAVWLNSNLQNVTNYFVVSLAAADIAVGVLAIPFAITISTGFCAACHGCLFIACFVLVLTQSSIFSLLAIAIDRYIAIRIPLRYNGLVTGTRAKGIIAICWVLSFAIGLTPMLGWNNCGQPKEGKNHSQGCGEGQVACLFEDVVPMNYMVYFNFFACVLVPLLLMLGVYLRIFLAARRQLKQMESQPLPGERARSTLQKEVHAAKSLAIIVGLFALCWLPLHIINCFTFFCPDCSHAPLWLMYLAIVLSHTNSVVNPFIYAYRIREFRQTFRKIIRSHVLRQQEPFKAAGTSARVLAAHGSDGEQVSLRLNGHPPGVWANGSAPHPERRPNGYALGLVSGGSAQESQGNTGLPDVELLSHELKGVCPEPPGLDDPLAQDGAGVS
structure (smiles),measurement,setting,value
O=C(CCCC[C@@H]1SC[C@@H]2NC(=O)N[C@@H]21)NCCCCCC(=O)NCCNC(=O)Cc1ccc(NC(=O)Cc2ccc(Nc3ncnc4c3ncn4[C@@H]3O[C@H](CO)[C@@H](O)[C@H]3O)cc2)cc1 [Compound 19],A1 Receptor MPR Relative to MeAdo,[1],3.3
same,IC50,[2],2400 nM
same,water solubility (in words),Water solubility,practically insoluble in water
same,Onset of Action,"[3]; coronary vasodilation, intracoronary infusion",20 to 30 s
same,A2 versus A1 receptor selectivity (in words),[3]; dog coronary A2 versus rat brain A1,highly divergent at A1 and A2 receptors
same,Duration of Vasodilation,[3]; intracoronary infusion,> 1 h
same,duration of vasodilation (in words),[3]; intracoronary infusion,often lasted for an hour or more
same,coronary vasoactivity (in words),"[3]; intracoronary infusion, dog",most active analogue; also recorded: three most active analogues
same,A2 Receptor MPR Relative to Ado,"[3]; molar potency ratio: EC50 of adenosine divided by that of the analogue, coronary, dog",10.2 ± 7.3
same,A2/A1 potency ratio (MPR(A2)/MPR(A1)),[3]; ratio of MPR (MeAdo) at dog coronary A2 receptor to MPR at rat brain A1 receptor,61
